Where “and” joins values, the source holds several entries; their conditions need not be identical. Equal entries are not always repeated. Where two headings read alike, the source gives them in different places.
Legend:
BMDCs = assay: LDH release (lytic cell death, pyroptosis) from LPS-primed BMDCs; format: cell-based, mouse; conditions: for Average (% positive control): LDH release; for cytotoxicity at 20 µM / cytotoxicity at 40 µM / cytotoxicity at 80 µM / cytotoxicity at 50 µM / cytotoxicity at 25 µM / cytotoxicity at 100 µM: Mus musculus, BMDC
Procedure, shortened: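 Mouse BMDCs (7-9 days differentiated, GM-CSF) primed with 50 ng ml^−1 E. coli K12 LPS for 3 hours, then exposed 3 hours to compounds (50 μM unless indicated) or activators (nigericin 5 μM; R837, CL097 100 μM). Lytic death measured as LDH release by colorimetric assay, triplicate wells.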

NLRP3 inflammasome = biological target: T1, NLRP3 inflammasome (Mus musculus, UniProt Q8R4B8); assay: IL-1β release from LPS-primed BMDCs (ELISA) as readout of NLRP3 inflammasome activation; format: cell-based
T1 construct: endogenous in cells; host or cells: primary mouse bone marrow-derived dendritic cells (BMDCs), LPS-primed
Procedure, shortened: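 NLRP3 inflammasome activation was read out as IL-1β released into the supernatant, measured by ELISA. Murine BMDCs were primed with LPS (50 ng ml^−1, 3 hours), then incubated with compounds for 3 hours, with each condition run in three technical replicates. Nigericin at 5 μM acted as the positive control activator, and IL-1β release was also expressed as a percentage of that control.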

[1] = compound 50 μM, positive control nigericin 5 μM
[2] = compound 50 μM, LPS-primed BMDCs, read-out: Average LDH release (% of max.)
[3] = single replicates, compound 50 μM, LPS-primed BMDCs, read-out: LDH release (% of max.)
[4] = IL-1β release, compound 50 μM, positive control nigericin 5 μM
[5] = compound 50 μM, LPS-primed BMDCs
[6] = single replicates, compound 50 μM, LPS-primed BMDCs

T1 sequence (Q8R4B8 whole entry): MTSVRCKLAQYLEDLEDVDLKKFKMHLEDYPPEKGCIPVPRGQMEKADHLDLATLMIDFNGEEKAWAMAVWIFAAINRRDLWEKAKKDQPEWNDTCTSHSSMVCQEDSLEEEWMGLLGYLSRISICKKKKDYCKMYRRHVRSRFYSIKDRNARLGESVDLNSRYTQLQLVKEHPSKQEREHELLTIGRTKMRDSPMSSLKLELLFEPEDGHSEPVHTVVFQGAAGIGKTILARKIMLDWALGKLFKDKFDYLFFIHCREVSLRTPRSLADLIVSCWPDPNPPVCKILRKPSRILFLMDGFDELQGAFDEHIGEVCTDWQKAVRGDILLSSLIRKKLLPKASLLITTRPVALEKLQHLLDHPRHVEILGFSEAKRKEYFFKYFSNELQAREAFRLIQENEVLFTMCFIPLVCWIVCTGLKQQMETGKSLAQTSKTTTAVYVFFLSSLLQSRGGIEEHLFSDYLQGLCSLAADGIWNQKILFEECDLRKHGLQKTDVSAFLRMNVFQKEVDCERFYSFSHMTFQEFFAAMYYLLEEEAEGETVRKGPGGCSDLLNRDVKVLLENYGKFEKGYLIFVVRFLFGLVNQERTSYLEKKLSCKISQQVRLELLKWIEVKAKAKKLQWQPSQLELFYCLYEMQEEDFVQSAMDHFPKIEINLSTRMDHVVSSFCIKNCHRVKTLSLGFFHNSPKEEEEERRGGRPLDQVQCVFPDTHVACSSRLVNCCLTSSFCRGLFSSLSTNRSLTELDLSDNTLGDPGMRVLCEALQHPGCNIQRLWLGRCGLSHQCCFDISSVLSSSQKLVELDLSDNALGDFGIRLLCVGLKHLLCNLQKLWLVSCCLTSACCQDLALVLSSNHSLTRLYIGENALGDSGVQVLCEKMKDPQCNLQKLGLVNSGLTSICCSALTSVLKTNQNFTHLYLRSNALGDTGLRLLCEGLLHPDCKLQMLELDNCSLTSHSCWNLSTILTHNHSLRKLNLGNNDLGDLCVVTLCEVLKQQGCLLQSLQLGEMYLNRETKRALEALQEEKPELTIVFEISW

SMILES	Average (% positive control) (BMDCs; [1])	cytotoxicity at 50 µM (BMDCs; [2])	cytotoxicity at 50 µM (BMDCs; [3])	Average (% positive control) (NLRP3 inflammasome; [4])	Average IL-1β (NLRP3 inflammasome; [5])	IL-1β (NLRP3 inflammasome; [6])	also measured
O=C(Nc1ccccc1)Nc1ccc2ncccc2n1 [JB002, 1-(1,5-naphthyridin-2-yl)-3-phenylurea]							Average (% positive control) (BMDCs; 20 μM, positive control EN22 20 μM): 13.887 % positive control; Average (% positive control) (BMDCs; 40 μM, positive control EN22 20 μM): 17.760 % positive control; Average (% positive control) (BMDCs; 80 μM, positive control EN22 20 μM): 30.084 % positive control; cytotoxicity at 20 µM (BMDCs; 20 μM, individual replicate values, read-out: LDH release (% of max.)): 7.72%; cytotoxicity at 20 µM (BMDCs; 20 μM, read-out: Average LDH release (% of max.)): 7.4%; cytotoxicity at 40 µM (BMDCs; 40 μM, individual replicate values, read-out: LDH release (% of max.)): 9.38%; cytotoxicity at 40 µM (BMDCs; 40 μM, read-out: Average LDH release (% of max.)): 9.46%; cytotoxicity at 80 µM (BMDCs; 80 μM, individual replicate values, read-out: LDH release (% of max.)): 14%; cytotoxicity at 80 µM (BMDCs; 80 μM, read-out: Average LDH release (% of max.)): 16%; Average IL-1β (NLRP3 inflammasome; 20 μM): 0.045 ng/mL; IL-1β (NLRP3 inflammasome; 20 μM, individual replicate values): 0.038 ng/mL and 0.050 ng/mL and 0.047 ng/mL; Average IL-1β (NLRP3 inflammasome; 40 μM): 0.192 ng/mL; IL-1β (NLRP3 inflammasome; 40 μM, individual replicate values): 0.190 ng/mL and 0.197 ng/mL and 0.1902 ng/mL; Average IL-1β (NLRP3 inflammasome; 80 μM): 0.503 ng/mL; IL-1β (NLRP3 inflammasome; 80 μM, individual replicate values): 0.464 ng/mL and 0.505 ng/mL and 0.540 ng/mL; Average (% positive control) (NLRP3 inflammasome; IL-1β, 20 μM, positive control EN22): 2.292 % positive control; Average (% positive control) (NLRP3 inflammasome; IL-1β, 40 μM, positive control EN22): 9.827 % positive control; Average (% positive control) (NLRP3 inflammasome; IL-1β, 80 μM, positive control EN22): 25.697 % positive control
CCOc1ccc(NC(=O)NCc2nc(-c3cccc(OC)c3)no2)cc1OCC [L01.013, 1-(3,4-diethoxyphenyl)-3-{[3-(3-methoxyphen-yl)-1,2,4-oxadiazol-5-yl]methyl}urea]	10.303 % positive control	7.54%	8.75%	1.677 % positive control	0.120 ng/mL	0.118 ng/mL and 0.126 ng/mL and 0.117 ng/mL	
O=C(Nc1ccccc1)Nc1cccc([N+](=O)[O-])c1 [L01.108, 3-(3-nitrophenyl)-1-phenylurea]	14.362 % positive control	10.5%	10.9%	0.973 % positive control	0.070 ng/mL	0.076 ng/mL and 0.061 ng/mL and 0.072 ng/mL	
CCc1ccc(Cl)c(CC)c1NC(=O)NC(c1nc(-c2cccnc2)no1)C(C)C (stereo not drawn) [L01.113, 1-(3-chloro-2,6-diethyl-phenyl)-3-{2-methyl-1-[3-(pyridin-3-yl)-1,2,4-oxadiazol-5-yl]propyl}-urea]	49.256 % positive control	36%	37.4%	15.691 % positive control	1.125 ng/mL	1.145 ng/mL and 1.165 ng/mL and 1.064 ng/mL	
O=C(Nc1ccccc1)Nc1cccc(OC(F)F)c1 [L01.120, 3-[3-(difluoromethoxy)-phenyl]-1-phenylurea]	33.449 % positive control	24.5%	25%	2.800 % positive control	0.201 ng/mL	0.207 ng/mL and 0.200 ng/mL and 0.196 ng/mL	
Cc1ccc(N2C(=O)C(=O)N(Cc3nc(-c4ccsc4)no3)C2=O)cc1 [L01.071, 1-(4-methylphenyl)-3-{[3-(thiophen-3-yl)-1,2,4-oxadiazol-5-yl]-methyl}imidazolidine-2,4,5-trione]	11.833 % positive control	8.66%	9.01%	1.598 % positive control	0.115 ng/mL	0.116 ng/mL and 0.097 ng/mL and 0.131 ng/mL	
CC(C)=CC(=O)Nc1cccc(NC(=O)Nc2ccccc2)c1 [L01.003, 3-methyl-N-{3-[(phen-ylcarbamoyl)amino]-phenyl}but-2-enamide]	10.676 % positive control	7.81%	6.28%	2.301 % positive control	0.165 ng/mL	0.167 ng/mL and 0.153 ng/mL and 0.175 ng/mL	
CC1Oc2ccc(NC(=O)Nc3ccccc3)cc2NC1=O (stereo not drawn) [L01.110, 3-(2-methyl-3-oxo-3,4-dihydro-2H-1,4-benzox-azin-6-yl)-1-phenylurea]	46.015 % positive control	33.7%	34.8%	36.599 % positive control	2.624 ng/mL	2.505 ng/mL and 2.943 ng/mL and 2.423 ng/mL	
CCCCOC(=O)c1ccc(NC(=O)NC(CC(C)C)c2nc(-c3nnc[nH]3)no2)cc1 (stereo not drawn) [L01.135, butyl 4-[{{3-methyl-1-[3-(4H-1,2,4-triazol-3-yl)-1,2,4-oxadiazol-5-yl]-butyl}carbamoyl)amino]-benzoate]	11.085 % positive control	8.11%	8.89%	0.975 % positive control	0.070 ng/mL	0.079 ng/mL and 0.073 ng/mL and 0.057 ng/mL	
O=C(NCCCc1ccccc1)Nc1ccc2ncccc2c1 [EN11-13, 1-(3-phenylpropyl)-3-(quinolin-6-yl)urea]							Average (% positive control) (BMDCs; 25 μM, positive control EN22 25 μM): 15.011 % positive control; Average (% positive control) (BMDCs; 50 μM, positive control EN22 25 μM): 20.209 % positive control; Average (% positive control) (BMDCs; 100 μM, positive control EN22 25 μM): 31.963 % positive control; cytotoxicity at 25 µM (BMDCs; 25 μM, EN11 series table, read-out: Average LDH release (% of max.)): 7.63%; cytotoxicity at 25 µM (BMDCs; 25 μM, individual replicate values, EN11 series table, read-out: LDH release (% of max.)): 7.55%; cytotoxicity at 50 µM (BMDCs; 50 μM, EN11 series table, read-out: Average LDH release (% of max.)): 10.3%; cytotoxicity at 50 µM (BMDCs; 50 μM, individual replicate values, EN11 series table, read-out: LDH release (% of max.)): 10.4%; cytotoxicity at 100 µM (BMDCs; 100 μM, individual replicate values, read-out: LDH release (% of max.)): 19.3%; cytotoxicity at 100 µM (BMDCs; 100 μM, read-out: Average LDH release (% of max.)): 16.3%; Average IL-1β (NLRP3 inflammasome; 25 μM, EN11 series table): 0.011 ng/mL; IL-1β (NLRP3 inflammasome; 25 μM, individual replicate values, EN11 series table): 0.000 ng/mL and 0.011 ng/mL and 0.023 ng/mL; Average IL-1β (NLRP3 inflammasome; 50 μM, EN11 series table): 0.067 ng/mL; IL-1β (NLRP3 inflammasome; 50 μM, individual replicate values, EN11 series table): 0.067 ng/mL; Average IL-1β (NLRP3 inflammasome; 100 μM): 0.297 ng/mL; IL-1β (NLRP3 inflammasome; 100 μM, individual replicate values): 0.243 ng/mL and 0.331 ng/mL and 0.316 ng/mL; Average (% positive control) (NLRP3 inflammasome; IL-1β, 25 μM, positive control EN22 25 μM): 0.764 % positive control; Average (% positive control) (NLRP3 inflammasome; IL-1β, 50 μM, positive control EN22 25 μM): 4.560 % positive control; Average (% positive control) (NLRP3 inflammasome; IL-1β, 100 μM, positive control EN22 25 μM): 20.130 % positive control
CN1C(=O)c2ccc(NC(=O)Nc3ccccc3)cc2C1=O [L01.128, 3-(2-methyl-1,3-dioxo-2,3-dihydro-1H-iso-indol-5-yl)-1-phenyl-urea]	16.086 % positive control	11.8%	12.1%	5.819 % positive control	0.417 ng/mL	0.456 ng/mL and 0.394 ng/mL and 0.402 ng/mL	
COc1ccc(NC(=O)Nc2ccccc2)cc1Cl [L01.026, 3-(3-chloro-4-methoxy-phenyl)-1-phenylurea]	14.776 % positive control	10.8%	9.23%	6.911 % positive control	0.495 ng/mL	0.452 ng/mL and 0.473 ng/mL and 0.562 ng/mL	
